Measured values published in US9938261B2, “Heterocyclic compounds and methods of use thereof” (AMBIT BIOSCIENCES CORPORATION, priority 2011, dated 2018).
pIC50, pKd: −log10 of the molar value.

Columns and labels:
[1] = biological target: T1, PDGFRβ (Homo sapiens, UniProt P09619); assay: Competition binding assay, PDGFRβ Kd
T1 construct: made in house
How it was run: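 Read-out is quantitative PCR of kinase recovered from affinity beads after competition with test compound. Binding reached equilibrium over 1 hour at room temperature; Kd values come from eleven-point threefold serial dilutions.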

[2] = biological target: CSF1R (Homo sapiens, UniProt P07333); assay: HEK293 CSF1R phosphorylation MSD assay; format: cell-based; parameters: expressed in transfected cells; host or cells: HEK293; settings: 2 h compound, human M-CSF 50 ng/mL for 5 min; read-out: HEK293 pCSF1R M-CSF MSD:IC50
CSF1R, sequence (P07333 20-972): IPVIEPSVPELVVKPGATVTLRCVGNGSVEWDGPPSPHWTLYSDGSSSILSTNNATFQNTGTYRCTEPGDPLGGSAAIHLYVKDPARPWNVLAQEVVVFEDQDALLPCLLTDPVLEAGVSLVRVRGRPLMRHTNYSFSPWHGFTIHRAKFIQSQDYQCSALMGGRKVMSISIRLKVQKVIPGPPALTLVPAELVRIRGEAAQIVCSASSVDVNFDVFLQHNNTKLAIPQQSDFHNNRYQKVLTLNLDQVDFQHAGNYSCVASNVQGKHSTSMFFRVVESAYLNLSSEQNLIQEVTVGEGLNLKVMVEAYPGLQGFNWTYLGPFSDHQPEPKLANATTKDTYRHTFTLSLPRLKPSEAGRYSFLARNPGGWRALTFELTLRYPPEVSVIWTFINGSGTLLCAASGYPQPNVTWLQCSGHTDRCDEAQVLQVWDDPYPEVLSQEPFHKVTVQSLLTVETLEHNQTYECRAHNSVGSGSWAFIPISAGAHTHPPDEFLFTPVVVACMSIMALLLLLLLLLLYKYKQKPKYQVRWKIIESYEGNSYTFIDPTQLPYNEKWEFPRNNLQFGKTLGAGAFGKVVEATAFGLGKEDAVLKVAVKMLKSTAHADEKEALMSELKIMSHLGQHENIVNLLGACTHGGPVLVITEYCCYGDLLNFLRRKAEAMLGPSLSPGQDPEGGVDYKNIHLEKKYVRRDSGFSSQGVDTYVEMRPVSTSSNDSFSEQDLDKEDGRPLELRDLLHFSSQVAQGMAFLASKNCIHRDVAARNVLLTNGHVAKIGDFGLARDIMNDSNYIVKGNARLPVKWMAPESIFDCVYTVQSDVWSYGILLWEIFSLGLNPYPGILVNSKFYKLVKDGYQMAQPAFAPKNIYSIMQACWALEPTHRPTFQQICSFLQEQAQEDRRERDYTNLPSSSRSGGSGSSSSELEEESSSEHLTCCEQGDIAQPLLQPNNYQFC
How it was run: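 Ligand-induced CSF1R autophosphorylation was measured by MSD sandwich assay: CSF1R-FKBP from lysates captured via FK506, anti-phosphotyrosine readout. Cells were exposed to compound for 2 h (9-point, half-log, 0.5% DMSO) before 5 min 50 ng/mL M-CSF. Reported IC50 is the mean of duplicate-plate IC50s relative to DMSO control.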

T1 sequence (P09619 33-1106): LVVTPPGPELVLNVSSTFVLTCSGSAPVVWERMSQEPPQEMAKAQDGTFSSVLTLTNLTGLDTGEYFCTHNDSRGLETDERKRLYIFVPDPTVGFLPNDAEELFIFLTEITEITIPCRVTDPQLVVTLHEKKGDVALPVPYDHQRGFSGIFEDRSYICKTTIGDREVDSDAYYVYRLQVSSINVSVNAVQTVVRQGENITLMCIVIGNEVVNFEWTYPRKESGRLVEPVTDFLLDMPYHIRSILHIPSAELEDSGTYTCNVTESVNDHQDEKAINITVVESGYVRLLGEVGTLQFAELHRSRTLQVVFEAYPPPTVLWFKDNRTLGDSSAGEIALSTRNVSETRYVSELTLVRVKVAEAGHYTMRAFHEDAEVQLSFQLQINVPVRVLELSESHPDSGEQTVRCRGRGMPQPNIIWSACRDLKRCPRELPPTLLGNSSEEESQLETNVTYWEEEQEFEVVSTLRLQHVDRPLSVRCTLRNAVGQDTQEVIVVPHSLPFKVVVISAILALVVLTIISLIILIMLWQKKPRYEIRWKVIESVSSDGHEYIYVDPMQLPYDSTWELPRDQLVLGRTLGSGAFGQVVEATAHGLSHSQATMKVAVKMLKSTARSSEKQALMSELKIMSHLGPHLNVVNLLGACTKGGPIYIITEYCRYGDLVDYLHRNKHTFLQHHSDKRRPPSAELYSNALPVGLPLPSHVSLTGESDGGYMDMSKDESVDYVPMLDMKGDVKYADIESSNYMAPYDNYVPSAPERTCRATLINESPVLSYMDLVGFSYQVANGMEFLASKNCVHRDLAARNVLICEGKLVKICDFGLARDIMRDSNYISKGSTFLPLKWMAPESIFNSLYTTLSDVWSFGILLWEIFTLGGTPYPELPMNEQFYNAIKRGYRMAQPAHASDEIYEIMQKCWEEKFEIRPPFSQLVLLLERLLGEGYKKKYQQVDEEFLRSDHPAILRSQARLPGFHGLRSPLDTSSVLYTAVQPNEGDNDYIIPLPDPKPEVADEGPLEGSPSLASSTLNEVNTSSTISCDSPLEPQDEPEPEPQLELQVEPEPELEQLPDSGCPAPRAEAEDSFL

Row | Compound | pKd [1] | pIC50 [2]
1 | COc1cc2c(cc1C#N)ncn2Cc1ccc2nc(N[C@@H]3CCCC[C@H]3O)sc2c1 [Example 65, 1-((2-(((1R,2R)-2-hydroxycyclohexyl)amino)benzo[d]thiazol-6-yl)methyl)-6-methoxy-1H-benzo[d]imidazole-5-carbonitrile] | < 5.70 | 6.70 to 7.30
2 | OC[C@@H]1CCCC[C@H]1Nc1nc2ccc(Cn3cnc4cccnc43)cc2s1 [Example 66, ((1R,2R)-2-((6-((3H-imidazo[4,5-b]pyridin-3-yl)methyl)benzo[d]thiazol-2-yl)amino)cyclohexyl)methanol] | 6.30 to 7.30 | 6.70 to 7.30
3 | CS(=O)(=O)c1cnc2c(c1)ncn2Cc1ccc2nc(N[C@@H]3CCCC[C@H]3O)sc2c1 [Example 74, (1R,2R)-2-((6-((6-(methylsulfonyl)-3H-imidazo[4,5-b]pyridin-3-yl)methyl)benzo[d]thiazol-2-yl)amino)cyclohexanol] | 6.30 to 7.30 | 6.70 to 7.30
4 | Cn1cc(-c2cn(Cc3ccc4nc(N[C@@H]5CCCC[C@H]5O)oc4c3)cn2)cn1 [Example 77, (1R,2R)-2-((6-((4-(1-methyl-1H-pyrazol-4-yl)-1H-imidazol-1-yl)methyl)benzo[d]oxazol-2-yl)amino)cyclohexanol] | 5.70 to 6.30 | 6.70 to 7.30
5 | O=C(O)c1cnc2c(c1)ncn2Cc1ccc2nc(N[C@@H]3CCCC[C@H]3O)sc2c1 [Example 81, 3-((2-(((1R,2R)-2-hydroxycyclohexyl)amino)benzo[d]thiazol-6-yl)methyl)-3H-imidazo[4,5-b]pyridine-6-carboxylic acid] | 6.30 to 7.30 | < 6.30
6 | O[C@@H]1CCCC[C@H]1Nc1nc2ccc(Cn3cnc4cc(CN5CCOCC5)cnc43)cc2s1 [Example 82, (1R,2R)-2-((6-((6-(morpholinomethyl)-3H-imidazo[4,5-b]pyridin-3-yl)methyl)benzo[d]thiazol-2-yl)amino)cyclohexanol] | 6.30 to 7.30 | 6.30 to 6.70
7 | OCc1cnc2c(c1)ncn2Cc1ccc2nc(N[C@@H]3CCCC[C@H]3O)sc2c1 [Example 84, (1R,2R)-2-((6-((6-(hydroxymethyl)-3H-imidazo[4,5-b]pyridin-3-yl)methyl)benzo[d]thiazol-2-yl)amino)cyclohexanol] | 6.30 to 7.30 | ≥ 7.30

Now from value to compound:

Row | pKd [1] | pIC50 [2] | Compound
8 | ≥ 7.30 | ≥ 7.30 | CC(=O)c1cnc2c(c1)ncn2Cc1ccc2nc(N[C@@H]3CCCC[C@H]3O)sc2c1 [Example 73, 1-(3-((2-(((1R,2R)-2-hydroxycyclohexyl)amino)benzo[d]thiazol-6-yl)methyl)-3H-imidazo[4,5-b]pyridin-6-yl)ethanone]
9 | ≥ 7.30 | 6.70 to 7.30 | OC1(CNc2nc3ccc(Cn4cnc5cccnc54)cc3s2)CCCCC1 [Example 75, 1-(((6-((3H-imidazo[4,5-b]pyridin-3-yl)methyl)benzo[d]thiazol-2-yl)amino)methyl)cyclohexanol]
10 | ≥ 7.30 | 6.70 to 7.30 | OCC1(CNc2nc3ccc(Cn4cnc5cccnc54)cc3s2)CCCCC1 [Example 76, (1-(((6-((3H-imidazo[4,5-b]pyridin-3-yl)methyl)benzo[d]thiazol-2-yl)amino)methyl)cyclohexyl)methanol]
11 | ≥ 7.30 | ≥ 7.30 | O[C@@H]1Cc2ccccc2[C@H]1Nc1nc2ccc(Cn3cnc4ccc(Br)nc43)cc2s1 [Example 80, (1R,2R)-1-((6-((5-bromo-3H-imidazo[4,5-b]pyridin-3-yl)methyl)benzo[d]thiazol-2-yl)amino)-2,3-dihydro-1H-inden-2-ol]
12 | ≥ 7.30 | ≥ 7.30 | CSc1cnc2c(c1)ncn2Cc1ccc2nc(N[C@@H]3CCCC[C@H]3O)sc2c1 [Example 85, (1R,2R)-2-((6-((6-(methylthio)-3H-imidazo[4,5-b]pyridin-3-yl)methyl)benzo[d]thiazol-2-yl)amino)cyclohexanol]
13 | ≥ 7.30 | ≥ 7.30 | CSCc1cnc2c(c1)ncn2Cc1ccc2nc(N[C@@H]3CCCC[C@H]3O)sc2c1 [Example 86, (1R,2R)-2-((6-((6-((methylthio)methyl)-3H-imidazo[4,5-b]pyridin-3-yl)methyl)benzo[d]thiazol-2-yl)amino)cyclohexanol]
